The source made the active and inactive calls. The rule behind the calls is not given here.
Legend:
[1] = biological target: Serine/threonine-protein kinase PknG (Mycobacterium tuberculosis) (UniProt P9WI73); assay: Inhibition of Mycobacterium tuberculosis Protein kinase G by radiometric ATP consumptive assay
J774 [2] = assay: Effect on Phorbol 12-myristate 13-acetate-induced cellular morphology in mouse J774 macrophage cells at 20 uM by video microscopy; assay type: functional, cell-based
J774 [3] = assay: Effect on Phorbol 12-myristate 13-acetate-induced membrane ruffling in mouse J774 macrophage cells at 20 uM by video microscopy; assay type: functional, cell-based
J774 [4] = assay: Effect on Phorbol 12-myristate 13-acetate-induced macropinocytosis in mouse J774 macrophage cells at 20 uM by video microscopy; assay type: functional, cell-based

Chain of Serine/threonine-protein kinase PknG (Mycobacterium tuberculosis) (P9WI73 whole entry): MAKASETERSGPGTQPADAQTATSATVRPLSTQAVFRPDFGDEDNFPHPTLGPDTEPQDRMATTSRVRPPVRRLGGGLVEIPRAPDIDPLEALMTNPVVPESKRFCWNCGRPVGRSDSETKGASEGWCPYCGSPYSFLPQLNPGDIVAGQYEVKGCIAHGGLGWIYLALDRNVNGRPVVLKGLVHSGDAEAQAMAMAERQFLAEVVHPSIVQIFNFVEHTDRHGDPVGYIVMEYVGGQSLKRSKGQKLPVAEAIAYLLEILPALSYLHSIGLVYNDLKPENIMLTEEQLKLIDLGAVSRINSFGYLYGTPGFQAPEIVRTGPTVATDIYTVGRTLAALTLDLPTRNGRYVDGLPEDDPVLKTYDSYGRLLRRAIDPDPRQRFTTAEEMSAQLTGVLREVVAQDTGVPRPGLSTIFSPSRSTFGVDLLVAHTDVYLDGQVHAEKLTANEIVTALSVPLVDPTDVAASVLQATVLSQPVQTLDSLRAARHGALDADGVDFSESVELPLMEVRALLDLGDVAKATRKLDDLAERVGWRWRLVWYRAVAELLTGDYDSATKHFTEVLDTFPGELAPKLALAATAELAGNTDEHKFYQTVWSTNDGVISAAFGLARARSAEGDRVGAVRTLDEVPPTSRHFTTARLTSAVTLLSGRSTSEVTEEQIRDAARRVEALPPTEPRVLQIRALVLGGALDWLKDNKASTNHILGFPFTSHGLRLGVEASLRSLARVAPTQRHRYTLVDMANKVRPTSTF

Q: What does the source list for `NC(=O)c1c(NC(=O)C2CC2)sc2c1CCCC2`?
A: Activity [1]: Active; Activity (J774 [2]): inactive; Activity (J774 [3]): inactive; Activity (J774 [4]): inactive
